Laboratory results from ChEMBL document CHEMBL5543158, “Design of Evodiamine-Glucose Conjugates with Improved In Vivo Antitumor Activity” (J Med Chem, 2024).
Values after ≈ are worked out from the molar mass of the structure shown. Active and inactive are the calls of the source. No cut-off for these calls is given here.

Experiments:
HCT-116 [1] = assay: Induction of apoptosis in human HCT116 cells assessed as accumulation of cells at G2 phase at 0.02 uM measured after 48 hrs by Annexin V-PI Flow cytometry assay (reference value: 17.63%); type: functional
HCT-116 [2] = assay: Induction of apoptosis in human HCT116 cells assessed as accumulation of cells at G1 phase at 0.05 uM measured after 48 hrs by Annexin V-PI Flow cytometry assay (reference value: 51.12%); type: functional
HCT-116 [3] = assay: Induction of apoptosis in human HCT116 cells assessed as accumulation of cells at S phase at 0.1 uM measured after 48 hrs by Annexin V-PI Flow cytometry assay (reference value: 31.25%); type: functional
HCT-116 [4] = assay: Antiproliferative activity against human HCT116 cells in presence of 5 uM phloretin measured after 72 hrs by CCK-8 assay; type: functional, cell-based; conditions: HCT-116, 72 h
HCT-116 [5] = assay: Antimigratory activity against human HCT116 cells assessed as wound healing rate incubated for 24 hrs by wound healing assay; type: functional, cell-based
[6] = AUC (0 to t)in mouse at 20 mg/kg, ip measured upto 24 hrs; type: ADME, organism-based; conditions: in vivo
U-87 MG = assay: Antiproliferative activity against human U-87 MG cells measured after 72 hrs by CCK-8 cells; type: functional, cell-based, U-87MG ATCC
HCT-116 [7] = assay: Antiproliferative activity against human HCT116 cells in presence of 10 uM phloretin measured after 72 hrs by CCK-8 assay; type: functional, cell-based; conditions: HCT-116, 72 h
[8] = Cytotoxicity against HUVEC after 72 hrs by CCK-8 assay; type: toxicity, cell-based; conditions: human, HUVEC cells
[9] = Stability of the compound in mouse serum assessed as compound remaining measured upto 120 mins; type: ADME, cell-free; conditions: read-out: Stability
Homo sapiens = species on record: Homo sapiens; assay: Inhibition of DNA topoisomerase 2 (unknown origin) mediated supercoiled DNA relaxation activity at 50 uM by agarose gel electrophoresis analysis
[10] = Tmax in mouse at 10 mg/kg, ip measured upto 24 hrs; type: ADME, organism-based; conditions: in vivo
[11] = Solubility of the compound in double distilled water measured upto 30 mins by UV-vis spectrophotometry; type: physicochemical
HCT-116 [12] = assay: Antiproliferative activity against human HCT116 cells measured after 72 hrs by CCK-8 cells; type: functional, cell-based; conditions: HCT-116, 72 h
HCT-116 [13] = assay: In vivo antitumor effect in human HCT-116 cells xenografted mouse model assessed as decrease in dense tumor tissue at 10 to 20 mg/kg, ip twice a day administered 21 consecutive days by H and E staining based assay; type: functional, organism-based; conditions: dose 10-20 mg/kg
HCT-116 [14] = assay: Induction of apoptosis in 100 pmol GLUT1 siRNA treated human HCT-116 cells assessed as late apoptotic cells at 50 nM incubated for 48 hrs (reference value: 17.13%); type: functional
HCT-116 [15] = assay: Induction of apoptosis in human HCT116 cells assessed as accumulation of cells at G1 phase at 0.02 uM measured after 48 hrs by Annexin V-PI Flow cytometry assay (reference value: 51.12%); type: functional
[16] = Toxicity in mouse xenografted with human HCT-116 cells assessed as organ damage by measuring change in heart at 10 mg/kg, ip twice a day administered 21 consecutive days; type: organism-based; conditions: in vivo
HCT-116 [17] = assay: Anti-invasive activity against human HCT116 cells assessed as decrease in number of cell migration into lower compartment incubated for 24 hrs by transwell assay; type: functional, cell-based; conditions: dose 0.02-0.05 µM
HCT-116 [18] = assay: Induction of apoptosis in human HCT116 cells assessed as accumulation of cells at G2 phase at 0.1 uM measured after 48 hrs by Annexin V-PI Flow cytometry assay (reference value: 17.63%); type: functional
HCT-116 [19] = assay: Reduction in GSH level in human HCT-116 cells assessed as reduced GSH content incubated for 12 hrs; type: functional, cell-based; conditions: dose 0.1-2 µM
[20] = Toxicity in mouse xenografted with human HCT-116 cells assessed as organ damage by measuring change in liver at 10 mg/kg, ip twice a day administered 21 consecutive days; type: organism-based; conditions: in vivo
[21] = Cmax in mouse at 20 mg/kg, ip measured upto 24 hrs; type: ADME, organism-based; conditions: in vivo
HCT-116 [22] = assay: Induction of apoptosis in human HCT116 cells assessed as accumulation of cells at S phase at 0.2 uM measured after 48 hrs by Annexin V-PI Flow cytometry assay (reference value: 31.25%); type: functional
HCT-116 [23] = assay: In vivo antitumor effect in human HCT-116 cells xenografted mouse model assessed as tumor growth inhibition at 10 mg/kg, ip twice a day administered 21 consecutive days; type: functional; conditions: read-out: TGI
HCT-116 [24] = assay: Induction of apoptosis in human HCT116 cells assessed as accumulation of cells at G2 phase at 0.05 uM measured after 48 hrs by Annexin V-PI Flow cytometry assay (reference value: 17.63%); type: functional
HCT-116 [25] = assay: Induction of apoptosis in human HCT116 cells assessed as accumulation of cells at S phase at 0.02 uM measured after 48 hrs by Annexin V-PI Flow cytometry assay (reference value: 31.25%); type: functional

IC50 (HCT-116 [4]): 210 nM
AUC(0-t) at 24 h [6]: 8430 ng·h/mL
IC50 (U-87 MG): 64 nM
IC50 (HCT-116 [7]): 430 nM
remaining at 2 h [9]: 100%
inhibition (Homo sapiens): Active
Tmax [10]: 30 min
solubility at 0.5 h [11]: 2150 µg/mL (≈ 4.3 mM)
IC50 (HCT-116 [12]): 64 nM
Cmax [21]: 8840 ng/mL
Structure (SMILES): CN1c2ccc(F)cc2C(=O)N2CCc3c([nH]c4ccc(O[C@@H]5O[C@H](CO)[C@@H](O)[C@H](O)[C@H]5O)cc34)[C@H]21
Activity (HCT-116 [1]): 30.19%
Activity (HCT-116 [2]): 10.48%
Activity (HCT-116 [3]): 9.44%
Activity (HCT-116 [5]): Dose-Dependent Effect
IC50 at 72 h [8]: 221 nM
Activity (HCT-116 [13]): Active
Activity (HCT-116 [14]): 21.75%
Activity (HCT-116 [15]): 43.27%
Activity [16]: Non-Toxic
Activity (HCT-116 [17]): Dose-Dependent Effect
Activity (HCT-116 [18]): 88.98%
Activity (HCT-116 [19]): Dose-Dependent Effect
Activity [20]: Non-Toxic
Activity (HCT-116 [22]): 5.6%
inhibition in vivo at 10 mg/kg (HCT-116 [23]): 72%
Activity (HCT-116 [24]): 57.53%
Activity (HCT-116 [25]): 26.54%
